Five molecules from patent US8846569B2, “Pesticidal bis-organosulfur compounds” (Merial Limited, priority 2009, dated 2014) can be followed below.

Broadly, the mortality is the percentage killed. A word on the EC50: it is the concentration at which the effect is half-maximal. Read a high EC50 as weaker potency.

What all share (assay type): in vivo
One assay concerns Anthonomus grandis. In words: Boll weevil (Anthonomus grandis) diet/egg test. As to conditions: 120 h, 2500 ppm, egg and larval mortality, 5 days, read-out: mortality in comparison with untreated controls. On the procedure:
For evaluating control of boll weevil (Anthonomus grandis) the test unit consisted of 24-well-microtiter plates containing an insect diet and 20-30 A. grandis eggs.
The compounds were formulated using a solution containing 75% v/v water and 25% v/v DMSO. Different concentrations of formulated compounds were sprayed onto the insect diet at 20 μl, using a custom built micro atomizer, at two replications.
After application, microtiter plates were incubated at about 23±1° C. and about 50±5% relative humidity for 5 days. Egg and larval mortality was then visually assessed.

The next assay has as its system Plutella xylostella. In words: Diamond back moth (Plutella xylostella) stomach poison leaf dip test. As to conditions: for activity in [%]: 10 ppm, scale 0% no biological activity to 100% total control. On the procedure: The test solution is prepared at the day of use.
Leaves of Chinese cabbage are dipped in test solution and air-dried. Treated leaves are placed in petri dished lined with moist filter paper. Mortality is recorded 24, 72, and 120 hours after treatment.
The biological tests were conducted as described above.

The next assay deals with Ceratitis capitata. In words: Mediterranean fruitfly (Ceratitis capitata) diet/egg test. As to conditions: 120 h, 2500 ppm, egg and larval mortality, 5 days, read-out: mortality in comparison with untreated controls. On the procedure:
For evaluating control of Mediterranean fruitfly (Ceratitis capitata) the test unit consisted of microtiter plates containing an insect diet and 50-80 C. capitata eggs.
The compounds were formulated using a solution containing 75% v/v water and 25% v/v DMSO. Different concentrations of formulated compounds were sprayed onto the insect diet at 5 nl, using a custom built micro atomizer, at two replications.
(§1) After application, microtiter plates were incubated at about 28±1° C. and about 80±5% relative humidity for 5 days. Egg and larval mortality was then visually assessed.

For the next assay, the system named is Heliothis virescens. In words: Tobacco budworm (Heliothis virescens) diet/egg test. Particulars: for mortality at 2500 ppm: Heliothis virescens, 120 h, egg and larval mortality, 5 days, read-out: mortality in comparison with untreated controls. On the procedure: For evaluating control of tobacco budworm (Heliothis virescens) the test unit consisted of 96-well-microtiter plates containing an insect diet and 15-25 H. virescens eggs.
The compounds were formulated using a solution containing 75% v/v water and 25% v/v DMSO. Different concentrations of formulated compounds were sprayed onto the insect diet at 10 μl, using a custom built micro atomizer, at two replications.
as §1
The biological activity shown tables under CB.1 and CB.2 was evaluated on scale range from 0% as showing no biological activity to 100% as having total control. The biological tests were conducted as described above.

In another assay the test system is Aedes aegypti. In words: Aedes aegypti neonate larvae motility assay. Particulars: larval motility, dose response. On the procedure: Compounds formulated in 100% DMSO are tested in microtiter plates containing 180 ul 1× Luria Broth media and 10 neonate A. aegypti larvae. The efficacy of a compound is determined based on the motility of the larvae as compared to average motility of control wells containing DMSO only. A dose response assay is conducted with compounds with >80% reduction in motility in the primary assay to determine an EC50 value. Selected compounds are advanced to insecticide secondary assays.

Another assay concerns Myzus persicae. In words: Green peach aphid (Myzus persicae) artificial diet test. Particulars: 72 h, 2500 ppm, adult aphids on treated artificial diet, 3 days, read-out: mortality in comparison with untreated controls. The text has this:
For evaluating control of green peach aphid (Myzus persicae) the test unit consisted of 96-well-microtiter plates containing liquid artificial diet under an artificial membrane.
The compounds were formulated using a solution containing 75% v/v water and 25% v/v DMSO. Different concentrations of formulated compounds were pipetted into the aphid diet, using a custom built pipetter, at two replications.
After application, 5-8 adult aphids were placed on the artificial membrane inside the microtiter plate wells. The aphids were then allowed to suck on the treated aphid diet and incubated at about 23±1° C. and about 50±5% relative humidity for 3 days. Aphid mortality and fecundity was then visually assessed.

The subject of another assay is Megoura viciae. In words: Vetch aphid (Megoura viciae) leaf disk test. Particulars: foliar, 120 h, 2500 ppm, adult aphids on sprayed broad bean leaf disks, 5 days, read-out: mortality in comparison with untreated controls. On the procedure:
For evaluating control of vetch aphid (Megoura viciae) through contact or systemic means the test unit consisted of 24-well-microtiter plates containing broad bean leaf disks.
The compounds were formulated using a solution containing 75% v/v water and 25% v/v DMSO. Different concentrations of formulated compounds were sprayed onto the leaf disks at 2.5 μl, using a custom built micro atomizer, at two replications.
After application, the leaf disks were air-dried and 5-8 adult aphids placed on the leaf disks inside the microtiter plate wells. The aphids were then allowed to suck on the treated leaf disks and incubated at about 23±1° C. and about 50±5% relative humidity for 5 days. Aphid mortality and fecundity was then visually assessed.

Take `N#CC(CCSC(F)(F)F)S(=O)(=O)CCC(F)(F)C(F)(F)F` (stereo not drawn) [II-1, 2-(3,3,4,4,4-Pentafluoro-butane-1-sulfonyl)-4-trifluoromethylsulfanyl-butyronitrile]: the mortality at 2500 ppm with Anthonomus grandis, with Ceratitis capitata, with Heliothis virescens, in the assay on Myzus persicae and with Megoura viciae was above 90% in each case. For the same molecule, the mortality at 500 ppm with Plutella xylostella (Plutella xylostella, foliar, 500 ppm, dipped Chinese cabbage leaves, stomach poison, read-out: mortality in comparison with untreated controls) was above 90%. For the same molecule, in the assay on Heliothis virescens (800 ppm, scale 0% no biological activity to 100% total control), the “activity in [%]” value worked out at 100%. Moreover, the half-maximal effective concentration (EC50) in the assay with Aedes aegypti is below 5 µg/mL.
For `N#CC(CCSC(F)(F)F)SCCC(F)(F)C(F)(F)F` (stereo not drawn) [II-15, 2-(3,3,4,4,4-Pentafluoro-butylsulfanyl)-4-trifluoromethylsulfanyl-butyronitrile], the mortality at 2500 ppm with Anthonomus grandis, in the assay with Ceratitis capitata, in the assay with Heliothis virescens, in the assay on Myzus persicae and with Megoura viciae was above 90% throughout. This molecule also had an EC50 in the assay with Aedes aegypti below 5 µg/mL.
Take `CCC(C#N)(CCSC(F)(F)F)S(=O)(=O)CCC(F)(F)C(F)(F)F` (stereo not drawn) [II-17, 2-Ethyl-2-(3,3,4,4,4-pentafluoro-butane-1-sulfonyl)-4-trifluoromethylsulfanyl-butyronitrile]: the mortality at 2500 ppm with Anthonomus grandis, in the assay on Ceratitis capitata, in the assay with Heliothis virescens and with Myzus persicae was above 90% each time. The concentration giving a half-maximal response (EC50) in the assay on Aedes aegypti is below 5 µg/mL.
Turning to `CC(C#N)(CCC(F)(F)F)S(=O)(=O)CCC(F)(F)C(F)(F)F` (stereo not drawn) [CE. 2, reference compound], in the assay with Plutella xylostella, the “activity in [%]” value was 0%.
For the molecule `CC(C#N)(CCSC(F)(F)F)S(=O)(=O)CCC(F)(F)C(F)(F)F` (stereo not drawn) [II-2, 2-Methyl-2-(3,3,4,4,4-pentafluoro-butane-1-sulfonyl)-4-trifluoromethyl-sulfanyl-butyronitrile], the “activity in [%]” value in the assay with Plutella xylostella came out at 100%.
